Laboratory results: patent publication EP0347459A1, “CEPHALOSPORIN COMPOUNDS OR THEIR SALTS, PROCESS FOR THEIR PREPARATION, AND PHARMACEUTICAL COMPOSITIONS” (TEIJIN LIMITED, priority 1987, dated 1988)
Converted amounts (≈) assume the structure as drawn.

What was measured:
Assay type in all cases: cell-based
[1] = tested on: S.aureus 209p NIHJ JC1; experiment: In vitro antibacterial activity, agar disc dilution method; conditions: Staphylococcus aureus; S.aureus 209p NIHJ JC1; Mueller Hinton agar, 10^6/ml, 37°C for 16 hours; read-out: minimum growth inhibitory concentration (MIC)
Description: (§1) An in vitro antibacterial activity was measured by an agar disc dilution method.
(§2) Varied test bacteria were cultivated overnight in triptophane-soybroth. A Mueller Hinton agar containing the compound of this invention in varied concentrations was streaked with one platinum loopful of each of the bacteria (number of living cells 10^6/ml).

[2] = tested on: S. aureus Terajima; experiment: as above; conditions: Staphylococcus aureus; S. aureus Terajima; Mueller Hinton agar, 10^6/ml, 37°C for 16 hours; read-out: minimum growth inhibitory concentration (MIC)
Description: as §1, §2

[3] = tested on: P.vulgalis OX-11; experiment: as above; conditions: P.vulgalis OX-11; Mueller Hinton agar, 10^6/ml, 37°C for 16 hours; read-out: minimum growth inhibitory concentration (MIC)
Description: as §1, §2

[4] = tested on: P.morganii IFO3445; experiment: as above; conditions: Morganella morganii; P.morganii IFO3445; Mueller Hinton agar, 10^6/ml, 37°C for 16 hours; read-out: minimum growth inhibitory concentration (MIC)
Description: as §1, §2

[5] = tested on: K.pneumoniae PCI602; experiment: as above; conditions: Klebsiella pneumoniae; K.pneumoniae PCI602; Mueller Hinton agar, 10^6/ml, 37°C for 16 hours; read-out: minimum growth inhibitory concentration (MIC)
Description: as §1, §2

[6] = tested on: S.enteritidis G14; experiment: as above; conditions: Salmonella enterica; S.enteritidis G14; Mueller Hinton agar, 10^6/ml, 37°C for 16 hours; read-out: minimum growth inhibitory concentration (MIC)
Description: as §1, §2

[7] = tested on: E.cloacae 963; experiment: as above; conditions: Enterobacter cloacae; E.cloacae 963; Mueller Hinton agar, 10^6/ml, 37°C for 16 hours; read-out: minimum growth inhibitory concentration (MIC)
Description: as §1, §2

[8] = tested on: M.luteus ATCC9341; experiment: as above; conditions: Micrococcus luteus; M.luteus ATCC9341; Mueller Hinton agar, 10^6/ml, 37°C for 16 hours; read-out: minimum growth inhibitory concentration (MIC)
Description: as §1, §2

[9] = tested on: P.aeruginosa IFO3445; experiment: as above; conditions: Pseudomonas aeruginosa; P.aeruginosa IFO3445; Mueller Hinton agar, 10^6/ml, 37°C for 16 hours; read-out: minimum growth inhibitory concentration (MIC)
Description: as §1, §2

[10] = tested on: P.aeruginosa NCTC1049; experiment: as above; conditions: Pseudomonas aeruginosa; P.aeruginosa NCTC1049; Mueller Hinton agar, 10^6/ml, 37°C for 16 hours; read-out: minimum growth inhibitory concentration (MIC)
Description: as §1, §2

[11] = tested on: S.typhi 901; experiment: as above; conditions: Salmonella enterica, 16 h, read-out: minimum growth inhibitory concentration (MIC)
Description: as §1, §2

[12] = tested on: P.aeruginosa PAD1; experiment: as above; conditions: Pseudomonas aeruginosa; P.aeruginosa PAD1; Mueller Hinton agar, 10^6/ml, 37°C for 16 hours; read-out: minimum growth inhibitory concentration (MIC)
Description: as §1, §2

[13] = tested on: S.pyogenes Cook; experiment: as above; conditions: Streptococcus pyogenes; S.pyogenes Cook; Mueller Hinton agar, 10^6/ml, 37°C for 16 hours; read-out: minimum growth inhibitory concentration (MIC)
Description: as §1, §2

[14] = tested on: S.marcescens IAM1184; experiment: as above; conditions: Serratia marcescens; S.marcescens IAM1184; Mueller Hinton agar, 10^6/ml, 37°C for 16 hours; read-out: minimum growth inhibitory concentration (MIC)
Description: as §1, §2

[15] = tested on: P.aeruginosa 64; experiment: MIC values of 10 kinds of Pseudomonas aeruginosa; conditions: Pseudomonas aeruginosa, 16 h; P.aeruginosa 64 (Table II); read-out: MIC values
Description: as §1, §2
(§3) MIC values of 10 kinds of Pseudomonas aeruginosa were measured for Compound III, Comparative Example B and CAZ.

[16] = tested on: P.aeruginosa N-3; experiment: MIC values of 10 kinds of Pseudomonas aeruginosa; conditions: N3, 16 h, P.aeruginosa N-3 (Table II), read-out: MIC values
Description: as §1, §2, §3

[17] = tested on: P.aeruginosa N-2; experiment: MIC values of 10 kinds of Pseudomonas aeruginosa; conditions: N2, 16 h, P.aeruginosa N-2 (Table II), read-out: MIC values
Description: as §1, §2, §3

[18] = tested on: P.aeruginosa ATCC27577; experiment: MIC values of 10 kinds of Pseudomonas aeruginosa; conditions: 16 h, P.aeruginosa ATCC27577 (Table II), read-out: MIC values
Description: as §1, §2, §3

[19] = tested on: P.aeruginosa NO. 97; experiment: MIC values of 10 kinds of Pseudomonas aeruginosa; conditions: 16 h, P.aeruginosa NO. 97 (Table II), read-out: MIC values
Description: as §1, §2, §3

[20] = tested on: P.aeruginosa Tid53; experiment: MIC values of 10 kinds of Pseudomonas aeruginosa; conditions: 16 h, P.aeruginosa Tid53 (Table II), read-out: MIC values
Description: as §1, §2, §3

[21] = tested on: P.aeruginosa 88; experiment: MIC values of 10 kinds of Pseudomonas aeruginosa; conditions: Pseudomonas aeruginosa, 16 h; P.aeruginosa 88 (Table II); read-out: MIC values
Description: as §1, §2, §3

[22] = tested on: P.aeruginosa 0-11; experiment: MIC values of 10 kinds of Pseudomonas aeruginosa; conditions: Pseudomonas aeruginosa, 011, 16 h; P.aeruginosa 0-11 (Table II); read-out: MIC values
Description: as §1, §2, §3

[23] = tested on: P.aeruginosa ATCC27318; experiment: MIC values of 10 kinds of Pseudomonas aeruginosa; conditions: 16 h, P.aeruginosa ATCC27318 (Table II), read-out: MIC values
Description: as §1, §2, §3

[24] = tested on: P.aeruginosa N-26; experiment: MIC values of 10 kinds of Pseudomonas aeruginosa; conditions: N26, 16 h, P.aeruginosa N-26 (Table II), read-out: MIC values
Description: as §1, §2, §3

SMILES | MIC [1] [µg/mL] | MIC [2] [µg/mL] | MIC [3] [ng/mL] | MIC [4] [ng/mL] | MIC [5] [ng/mL] | MIC [6] [ng/mL] | MIC [7] [ng/mL] | MIC [8] [µg/mL] | MIC [9] [µg/mL] | MIC [10] [µg/mL] | MIC [11] [ng/mL] | MIC [12] [µg/mL] | MIC [13] [µg/mL] | MIC [14] [ng/mL] | MIC [15] [µg/mL] | MIC [16] [µg/mL] | MIC [17] [µg/mL] | MIC [18] [ng/mL] | MIC [19] [µg/mL] | MIC [20] [µg/mL] | other results
CON=C(C(=O)NC1C(=O)N2C(C(=O)[O-])=C(C[n+]3ccc4cc(O)c(O)cc4c3)CSC12)c1csc(N)n1 [Comparative Compound A, (6R,7R)-7-[(Z)-2-(2-amino-l,3-thiazol-4-yl)-2-methoxyiminolacetamide-3-(6,7-dihydroxy-2-isoquinolinium)methyl-3-cephem-4-carboxylate, reference compound] | 0.4 (≈ 0.719 µM) | 0.4 (≈ 0.719 µM) | 5 (≈ 0.00898 µM) | 100 (≈ 0.18 µM) | 5 (≈ 0.00898 µM) | 5 (≈ 0.00898 µM) | 25 (≈ 0.0449 µM) | 0.4 (≈ 0.719 µM) | 50 (≈ 89.8 µM) | 0.2 (≈ 0.359 µM) | 5 (≈ 0.00898 µM) | 50 (≈ 89.8 µM) | 0.2 (≈ 0.359 µM) | 5 (≈ 0.00898 µM) | – | – | – | – | – | – | –
Nc1nc(C(=NOC(C(=O)O)c2ccccc2)C(=O)NC2C(=O)N3C(C(=O)[O-])=C(C[n+]4ccc5cc(O)c(O)cc5c4)CSC23)ns1 [Compound IV, (6R,7R)-7-[(Z)-2-(5-amino-l,2,4-thiadiazol-3-yl-2-[(alpha-carboxybenzyl)oxyimino]acetamide-3-(6,7-dihydroxy-2-isoquinolinium)methyl-3-cephem-4-carboxylate] | 3.2 (≈ 4.72 µM) | 3.2 (≈ 4.72 µM) | 5 (≈ 0.00738 µM) | 5 (≈ 0.00738 µM) | 5 (≈ 0.00738 µM) | 5 (≈ 0.00738 µM) | 5 (≈ 0.00738 µM) | 0.8 (≈ 1.18 µM) | 0.025 (≈ 0.0369 µM) | 0.0125 (≈ 0.0184 µM) | 5 (≈ 0.00738 µM) | 0.025 (≈ 0.0369 µM) | 0.8 (≈ 1.18 µM) | 5 (≈ 0.00738 µM) | – | – | – | – | – | – | –
CON=C(C(=O)NC1C(=O)N2C(C(=O)[O-])=C(C[n+]3ccc4cc(O)c(O)cc4c3)CSC12)c1nsc(N)n1 [Compound I, (6R,7R)-7-[(Z)-2-(5-amino-1,2,4-thiadiazol-3-yl-2-methoxyimino)acetamide]-3-(6,7-dihydroxy-2-isoquinolinium)methyl-3-cephem-4-carboxylate] | 1.6 (≈ 2.87 µM) | 1.6 (≈ 2.87 µM) | 5 (≈ 0.00897 µM) | 5 (≈ 0.00897 µM) | 5 (≈ 0.00897 µM) | 5 (≈ 0.00897 µM) | 5 (≈ 0.00897 µM) | 0.1 (≈ 0.179 µM) | 12.5 (≈ 22.4 µM) | 0.2 (≈ 0.359 µM) | 5 (≈ 0.00897 µM) | 12.5 (≈ 22.4 µM) | 0.05 (≈ 0.0897 µM) | 5 (≈ 0.00897 µM) | – | – | – | – | – | – | –
Nc1nc(C(=NOCC(=O)O)C(=O)NC2C(=O)N3C(C(=O)[O-])=C(C[n+]4ccc5cc(O)c(O)cc5c4)CSC23)ns1 [Compound II, (6R,7R)-7-[(Z)-5-amino-1,2,4-thiadiazol-3-yl)-2-(carboxymethoxyimino)acetamidel-3-(6,7-dihydroxy-2-isoquinolinium)methyl-3-cephem-4-carboxylate] | 12.5 (≈ 20.8 µM) | 3.1 (≈ 5.15 µM) | 5 (≈ 0.00831 µM) | 5 (≈ 0.00831 µM) | 5 (≈ 0.00831 µM) | 5 (≈ 0.00831 µM) | 5 (≈ 0.00831 µM) | 1.6 (≈ 2.66 µM) | 0.05 (≈ 0.0831 µM) | 0.0125 (≈ 0.0208 µM) | 5 (≈ 0.00831 µM) | 0.025 (≈ 0.0416 µM) | 0.2 (≈ 0.332 µM) | 5 (≈ 0.00831 µM) | – | – | – | – | – | – | –
CC(C)(ON=C(C(=O)NC1C(=O)N2C(C(=O)[O-])=C(C[n+]3ccc4cc(O)c(O)cc4c3)CSC12)c1nsc(N)n1)C(=O)O [Compound III, (6R,7R)-7-[(Z)-2-(5-amino-1,2,4-thiadiazol-3-yl)-2-(2-carboxypropyl-2-yloxyimino)acetamide]-3-(6,7-dihydroxy-2-isoquinolinium)methyl-3-ce phem-4-carboxylate] | 12.5 (≈ 19.9 µM) | 3.1 (≈ 4.92 µM) | 5 (≈ 0.00794 µM) | 5 (≈ 0.00794 µM) | 5 (≈ 0.00794 µM) | 5 (≈ 0.00794 µM) | 5 (≈ 0.00794 µM) | 3.1 (≈ 4.92 µM) | 0.0125 (≈ 0.0199 µM) | 0.005 (≈ 0.00794 µM) | 5 (≈ 0.00794 µM) | 0.0125 (≈ 0.0199 µM) | 1.6 (≈ 2.54 µM) | 5 (≈ 0.00794 µM) | 0.0125 (≈ 0.0199 µM) | 0.0125 (≈ 0.0199 µM) | 0.025 (≈ 0.0397 µM) | 5 (≈ 0.00794 µM) | 0.005 (≈ 0.00794 µM) | 0.005 (≈ 0.00794 µM) | MIC [21]: 0.0125 µg/mL (≈ 0.0199 µM); MIC [22]: 0.005 µg/mL (≈ 0.00794 µM); MIC [23]: 0.0125 µg/mL (≈ 0.0199 µM); MIC [24]: 0.0125 µg/mL (≈ 0.0199 µM)
CC(C)(ON=C(C(=O)NC1C(=O)N2C(C(=O)[O-])=C(C[n+]3ccc4cc(O)c(O)cc4c3)CSC12)c1csc(N)n1)C(=O)O [Comparative Compound B, (6R,7R)-7-[(Z)-2-(2-amino-l,3-thiazol-4-yl)-2-(2-carboxypropyl-2-yloxyimino)acetamide]-3-(6,7-dihydroxy-2-isoquinolinium)methyl-3-cephem-4-carboxylate, reference compound] | 12.5 (≈ 19.9 µM) | 3.1 (≈ 4.93 µM) | 5 (≈ 0.00795 µM) | 5 (≈ 0.00795 µM) | 5 (≈ 0.00795 µM) | 5 (≈ 0.00795 µM) | 5 (≈ 0.00795 µM) | 3.1 (≈ 4.93 µM) | 0.025 (≈ 0.0398 µM) | 0.0125 (≈ 0.0199 µM) | 5 (≈ 0.00795 µM) | 0.025 (≈ 0.0398 µM) | 1.6 (≈ 2.55 µM) | 5 (≈ 0.00795 µM) | 0.05 (≈ 0.0795 µM) | 0.05 (≈ 0.0795 µM) | 0.05 (≈ 0.0795 µM) | 5 (≈ 0.00795 µM) | 0.025 (≈ 0.0398 µM) | 0.05 (≈ 0.0795 µM) | MIC [21]: 0.025 µg/mL (≈ 0.0398 µM); MIC [22]: 0.05 µg/mL (≈ 0.0795 µM); MIC [23]: 0.05 µg/mL (≈ 0.0795 µM); MIC [24]: 0.1 µg/mL (≈ 0.159 µM)
